Measurements: patent US6914045B2, “Glycopeptide antibiotics” (Wyeth Holdings Corporation, priority 2001, dated 2005)
Converted amounts (≈) assume the structure as drawn. One block for each molecule: values may come before it.

How the values were obtained:
Assay in all cases: in vitro antibacterial evaluation, MIC by broth dilution
Type in all cases: cell-based
Enterococcus sp. = conditions: broth dilution, 18 hours at 35° C.
Outline: (§1)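 MIC, the lowest antibiotic concentration preventing growth, was read across 64-0.06 μg/mL with 5×10^5 CFU/mL inoculum. Method followed NCCLS M7-A2 broth dilution using Mueller-Hinton II; Gram-positive strains covered recent methicillin-, penicillin- and/or vancomycin-resistant clinical isolates.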

Staphylococcus sp. = conditions: broth dilution, 18 hours at 35° C.; for MIC Staphylococcus aureus (GC 1131): strain GC 1131; for MIC Staphylococcus aureus (ATCC 29213): strain ATCC 29213; for MIC Staphylococcus aureus (GC 3051): strain GC 3051; for MIC Staphylococcus aureus (GC 3053): strain GC 3053; for MIC Staphylococcus aureus (GC 4541): strain GC 4541; for MIC Staphylococcus aureus (GC 4542): strain GC 4542; for MIC Staphylococcus aureus-SMITH (GC 4543): strain GC 4543; for MIC Staphylococcus aureus (GC 4544): strain GC 4544; for MIC Staphylococcus aureus (GC 4545): strain GC 4545; for MIC Staphylococcus haemolyticus (GC 4546): strain GC 4546; for MIC Coagulase Negative Staphylococcus (GC 4547): strain GC 4547; for MIC Coagulase Negative Staphylococcus (GC 4548): strain GC 4548; for MIC Coagulase Negative Staphylococcus (GC 4549): strain GC 4549; for MIC Coagulase Negative Staphylococcus (GC 4551): strain GC 4551
Outline: as §1

Streptococcus sp. = conditions: broth dilution, 18 hours at 35° C.
Outline: as §1

Escherichia coli = conditions: 18 hours at 35° C.
[1] = inoculum 5×10^5 CFU/mL, strain ATCC 29212
[2] = inoculum 5×10^5 CFU/mL, strain GC 2242
[3] = inoculum 5×10^5 CFU/mL, strain GC 2243
[4] = inoculum 5×10^5 CFU/mL, strain GC 2691
[5] = inoculum 5×10^5 CFU/mL, strain GC 3059
[6] = inoculum 5×10^5 CFU/mL, strain GC 4552
[7] = inoculum 5×10^5 CFU/mL, strain GC 4553
[8] = inoculum 5×10^5 CFU/mL, strain GC 4554
[9] = inoculum 5×10^5 CFU/mL, strain GC 4556
[10] = inoculum 5×10^5 CFU/mL, strain GC 4557
[11] = inoculum 5×10^5 CFU/mL, strain GC 4558
[12] = inoculum 5×10^5 CFU/mL, strain GC 6189
[13] = inoculum 5×10^5 CFU/mL, strain ATCC 6301
[14] = inoculum 5×10^5 CFU/mL, strain GC 1894
[15] = inoculum 5×10^5 CFU/mL, strain GC 4563
[16] = inoculum 5×10^5 CFU/mL, strain GC 4564
[17] = inoculum 5×10^5 CFU/mL, strain GC 4565

MIC Enterococcus avium (GC 4558) (Enterococcus sp.): 16 µg/mL (≈ 11.5 µM)
MIC Enterococcus faecalis (ATCC 29212) (Enterococcus sp.): 16 µg/mL (≈ 11.5 µM)
MIC Enterococcus faecalis (GC 2242) (Enterococcus sp.): 16 µg/mL (≈ 11.5 µM)
MIC Enterococcus faecalis (GC 2691) (Enterococcus sp.): 16 µg/mL (≈ 11.5 µM)
MIC Enterococcus faecalis (GC 3059) (Enterococcus sp.): 16 µg/mL (≈ 11.5 µM)
MIC Enterococcus faecalis (GC 4552) (Enterococcus sp.): 16 µg/mL (≈ 11.5 µM)
MIC Enterococcus faecalis (GC 4553) (Enterococcus sp.): 16 µg/mL (≈ 11.5 µM)
MIC Enterococcus faecalis (GC 4554) (Enterococcus sp.): 16 µg/mL (≈ 11.5 µM)
MIC Enterococcus faecalis (GC 6189) (Enterococcus sp.): 16 µg/mL (≈ 11.5 µM)
MIC Enterococcus faecium (GC 2243) (Enterococcus sp.): 16 µg/mL (≈ 11.5 µM)
MIC Enterococcus faecium (GC 4556) (Enterococcus sp.): 16 µg/mL (≈ 11.5 µM)
MIC Enterococcus faecium (GC 4557) (Enterococcus sp.): 8 µg/mL (≈ 5.76 µM)
MIC Enterococcus faecalis (ATCC 29212) (Enterococcus sp.; [1]): 16 µg/mL (≈ 11.5 µM)
MIC Enterococcus faecalis (GC 2242) (Enterococcus sp.; [2]): 16 µg/mL (≈ 11.5 µM)
MIC Enterococcus faecium (GC 2243) (Enterococcus sp.; [3]): 16 µg/mL (≈ 11.5 µM)
MIC Enterococcus faecalis (GC 2691) (Enterococcus sp.; [4]): 16 µg/mL (≈ 11.5 µM)
MIC Enterococcus faecalis (GC 3059) (Enterococcus sp.; [5]): 16 µg/mL (≈ 11.5 µM)
MIC Enterococcus faecalis (GC 4552) (Enterococcus sp.; [6]): 16 µg/mL (≈ 11.5 µM)
MIC Enterococcus faecalis (GC 4553) (Enterococcus sp.; [7]): 16 µg/mL (≈ 11.5 µM)
MIC Enterococcus faecalis (GC 4554) (Enterococcus sp.; [8]): 16 µg/mL (≈ 11.5 µM)
MIC Enterococcus faecium (GC 4556) (Enterococcus sp.; [9]): 16 µg/mL (≈ 11.5 µM)
MIC Enterococcus faecium (GC 4557) (Enterococcus sp.; [10]): 8 µg/mL (≈ 5.76 µM)
MIC Enterococcus avium (GC 4558) (Enterococcus sp.; [11]): 16 µg/mL (≈ 11.5 µM)
MIC Enterococcus faecalis (GC 6189) (Enterococcus sp.; [12]): 16 µg/mL (≈ 11.5 µM)
MIC Staphylococcus aureus (GC 1131) (Staphylococcus sp.; inoculum 5×10^5 CFU/mL): 8 µg/mL (≈ 5.76 µM)
MIC Staphylococcus aureus (ATCC 29213) (Staphylococcus sp.): 4 µg/mL (≈ 2.88 µM)
MIC Staphylococcus aureus (GC 1131) (Staphylococcus sp.): 8 µg/mL (≈ 5.76 µM)
MIC Staphylococcus aureus (GC 3051) (Staphylococcus sp.): 4 µg/mL (≈ 2.88 µM)
MIC Staphylococcus aureus (GC 3053) (Staphylococcus sp.): 8 µg/mL (≈ 5.76 µM)
MIC Staphylococcus aureus (GC 4541) (Staphylococcus sp.): 4 µg/mL (≈ 2.88 µM)
MIC Staphylococcus aureus (GC 4542) (Staphylococcus sp.): 4 µg/mL (≈ 2.88 µM)
MIC Staphylococcus aureus-SMITH (GC 4543) (Staphylococcus sp.): 4 µg/mL (≈ 2.88 µM)
MIC Staphylococcus aureus (GC 4544) (Staphylococcus sp.): 8 µg/mL (≈ 5.76 µM)
MIC Staphylococcus aureus (GC 4545) (Staphylococcus sp.): 4 µg/mL (≈ 2.88 µM)
MIC Coagulase Negative Staphylococcus (GC 4547) (Staphylococcus sp.): 4 µg/mL (≈ 2.88 µM)
MIC Coagulase Negative Staphylococcus (GC 4548) (Staphylococcus sp.): 4 µg/mL (≈ 2.88 µM)
MIC Coagulase Negative Staphylococcus (GC 4549) (Staphylococcus sp.): 2 µg/mL (≈ 1.44 µM)
MIC Coagulase Negative Staphylococcus (GC 4551) (Staphylococcus sp.): 4 µg/mL (≈ 2.88 µM)
MIC Streptococcus agalactiae (GC 4564) (Streptococcus sp.): 1 µg/mL (≈ 0.72 µM)
MIC Streptococcus pneumoniae (ATCC 6301) (Streptococcus sp.): 0.5 µg/mL (≈ 0.36 µM)
MIC Streptococcus pneumoniae (GC 1894) (Streptococcus sp.): 0.25 µg/mL (≈ 0.18 µM)
MIC Streptococcus pneumoniae (GC 4565) (Streptococcus sp.): 0.5 µg/mL (≈ 0.36 µM)
MIC Streptococcus pyogenes (GC 4563) (Streptococcus sp.): 0.5 µg/mL (≈ 0.36 µM)
MIC Streptococcus pneumoniae (ATCC 6301) (Streptococcus sp.; [13]): 0.5 µg/mL (≈ 0.36 µM)
MIC Streptococcus pneumoniae (GC 1894) (Streptococcus sp.; [14]): 0.25 µg/mL (≈ 0.18 µM)
MIC Streptococcus pyogenes (GC 4563) (Streptococcus sp.; [15]): 0.5 µg/mL (≈ 0.36 µM)
MIC Streptococcus agalactiae (GC 4564) (Streptococcus sp.; [16]): 1 µg/mL (≈ 0.72 µM)
MIC Streptococcus pneumoniae (GC 4565) (Streptococcus sp.; [17]): 0.5 µg/mL (≈ 0.36 µM)
MIC Escherichia coli (ATCC 25922) (Escherichia coli): 128 µg/mL (≈ 92.1 µM)
MIC Escherichia coli (GC 4559) (Escherichia coli): 128 µg/mL (≈ 92.1 µM)
MIC Escherichia coli (GC 4560) (Escherichia coli): 4 µg/mL (≈ 2.88 µM)
SMILES: CC(c1ccccc1)C1NC(=O)CNC(=O)C(CO)NC(=O)C(C(O)C2CNC(=N)N2C2OC(CO)C(O)C(O)C2O)NC(=O)C(C(O)C2CNC(=N)N2)NC(=O)C(Cc2ccc(OC3OC(CO)C(OC4OC5COC6(CCCCC6C)OC5C(O)C4O)C(O)C3O)cc2)NC1=O (centres unmarked) [Example 204]
MIC Staphylococcus haemolyticus (GC 4546) (Staphylococcus sp.): 2 µg/mL (≈ 1.44 µM)

MIC Enterococcus avium (GC 4558) (Enterococcus sp.): 4 µg/mL (≈ 2.85 µM)
MIC Enterococcus faecalis (ATCC 29212) (Enterococcus sp.): 2 µg/mL (≈ 1.43 µM)
MIC Enterococcus faecalis (GC 2242) (Enterococcus sp.): 4 µg/mL (≈ 2.85 µM)
MIC Enterococcus faecalis (GC 2691) (Enterococcus sp.): 4 µg/mL (≈ 2.85 µM)
MIC Enterococcus faecalis (GC 3059) (Enterococcus sp.): 2 µg/mL (≈ 1.43 µM)
MIC Enterococcus faecalis (GC 4552) (Enterococcus sp.): 4 µg/mL (≈ 2.85 µM)
MIC Enterococcus faecalis (GC 4553) (Enterococcus sp.): 2 µg/mL (≈ 1.43 µM)
MIC Enterococcus faecalis (GC 4554) (Enterococcus sp.): 4 µg/mL (≈ 2.85 µM)
MIC Enterococcus faecalis (GC 6189) (Enterococcus sp.): 2 µg/mL (≈ 1.43 µM)
MIC Enterococcus faecium (GC 2243) (Enterococcus sp.): 2 µg/mL (≈ 1.43 µM)
MIC Enterococcus faecium (GC 4556) (Enterococcus sp.): 2 µg/mL (≈ 1.43 µM)
MIC Enterococcus faecium (GC 4557) (Enterococcus sp.): 4 µg/mL (≈ 2.85 µM)
MIC Enterococcus faecalis (ATCC 29212) (Enterococcus sp.; [1]): 2 µg/mL (≈ 1.43 µM)
MIC Enterococcus faecalis (GC 2242) (Enterococcus sp.; [2]): 4 µg/mL (≈ 2.85 µM)
MIC Enterococcus faecium (GC 2243) (Enterococcus sp.; [3]): 2 µg/mL (≈ 1.43 µM)
MIC Enterococcus faecalis (GC 2691) (Enterococcus sp.; [4]): 4 µg/mL (≈ 2.85 µM)
MIC Enterococcus faecalis (GC 3059) (Enterococcus sp.; [5]): 2 µg/mL (≈ 1.43 µM)
MIC Enterococcus faecalis (GC 4552) (Enterococcus sp.; [6]): 4 µg/mL (≈ 2.85 µM)
MIC Enterococcus faecalis (GC 4553) (Enterococcus sp.; [7]): 2 µg/mL (≈ 1.43 µM)
MIC Enterococcus faecalis (GC 4554) (Enterococcus sp.; [8]): 4 µg/mL (≈ 2.85 µM)
MIC Enterococcus faecium (GC 4556) (Enterococcus sp.; [9]): 2 µg/mL (≈ 1.43 µM)
MIC Enterococcus faecium (GC 4557) (Enterococcus sp.; [10]): 4 µg/mL (≈ 2.85 µM)
MIC Enterococcus avium (GC 4558) (Enterococcus sp.; [11]): 4 µg/mL (≈ 2.85 µM)
MIC Enterococcus faecalis (GC 6189) (Enterococcus sp.; [12]): 2 µg/mL (≈ 1.43 µM)
MIC Staphylococcus aureus (GC 1131) (Staphylococcus sp.; inoculum 5×10^5 CFU/mL): 2 µg/mL (≈ 1.43 µM)
MIC Staphylococcus aureus (ATCC 29213) (Staphylococcus sp.): 2 µg/mL (≈ 1.43 µM)
MIC Staphylococcus aureus (GC 1131) (Staphylococcus sp.): 2 µg/mL (≈ 1.43 µM)
MIC Staphylococcus aureus (GC 3051) (Staphylococcus sp.): 2 µg/mL (≈ 1.43 µM)
MIC Staphylococcus aureus (GC 3053) (Staphylococcus sp.): 2 µg/mL (≈ 1.43 µM)
MIC Staphylococcus aureus (GC 4541) (Staphylococcus sp.): 2 µg/mL (≈ 1.43 µM)
MIC Staphylococcus aureus (GC 4542) (Staphylococcus sp.): 2 µg/mL (≈ 1.43 µM)
MIC Staphylococcus aureus-SMITH (GC 4543) (Staphylococcus sp.): 2 µg/mL (≈ 1.43 µM)
MIC Staphylococcus aureus (GC 4544) (Staphylococcus sp.): 2 µg/mL (≈ 1.43 µM)
MIC Staphylococcus aureus (GC 4545) (Staphylococcus sp.): 2 µg/mL (≈ 1.43 µM)
MIC Coagulase Negative Staphylococcus (GC 4547) (Staphylococcus sp.): 2 µg/mL (≈ 1.43 µM)
MIC Coagulase Negative Staphylococcus (GC 4548) (Staphylococcus sp.): 1 µg/mL (≈ 0.713 µM)
MIC Coagulase Negative Staphylococcus (GC 4549) (Staphylococcus sp.): 1 µg/mL (≈ 0.713 µM)
MIC Coagulase Negative Staphylococcus (GC 4551) (Staphylococcus sp.): 2 µg/mL (≈ 1.43 µM)
MIC Streptococcus agalactiae (GC 4564) (Streptococcus sp.): <0.12 µg/mL
MIC Streptococcus pneumoniae (ATCC 6301) (Streptococcus sp.): <0.12 µg/mL
MIC Streptococcus pneumoniae (GC 1894) (Streptococcus sp.): <0.12 µg/mL
MIC Streptococcus pneumoniae (GC 4565) (Streptococcus sp.): <0.12 µg/mL
MIC Streptococcus pyogenes (GC 4563) (Streptococcus sp.): <0.12 µg/mL
MIC Streptococcus pneumoniae (ATCC 6301) (Streptococcus sp.; [13]): <0.12 µg/mL
MIC Streptococcus pneumoniae (GC 1894) (Streptococcus sp.; [14]): <0.12 µg/mL
MIC Streptococcus pyogenes (GC 4563) (Streptococcus sp.; [15]): <0.12 µg/mL
MIC Streptococcus agalactiae (GC 4564) (Streptococcus sp.; [16]): <0.12 µg/mL
MIC Streptococcus pneumoniae (GC 4565) (Streptococcus sp.; [17]): <0.12 µg/mL
MIC Escherichia coli (ATCC 25922) (Escherichia coli): 64 µg/mL (≈ 45.6 µM)
MIC Escherichia coli (GC 4559) (Escherichia coli): 128 µg/mL (≈ 91.2 µM)
MIC Escherichia coli (GC 4560) (Escherichia coli): 1 µg/mL (≈ 0.713 µM)
SMILES: CC(c1ccccc1)C1NC(=O)CNC(=O)C(CO)NC(=O)C(C(O)C2CNC(=N)N2C2OC(CO)C(O)C(O)C2O)NC(=O)C(C(O)C2CNC(=N)N2)NC(=O)C(Cc2ccc(OC3OC(CO)C(OC4OC5COC6(CCCCC6(C)C)OC5C(O)C4O)C(O)C3O)cc2)NC1=O (centres unmarked) [Example 205]
MIC Staphylococcus haemolyticus (GC 4546) (Staphylococcus sp.): 2 µg/mL (≈ 1.43 µM)
